Data set [1] is described as follows: logP determination by HPLC on reversed-phase column (C 18), EEC Directive 79/831 Annex V.A8. It is filed as physicochemical. The conditions noted are these: for chromatographic logP: reversed-phase HPLC column (C 18). As to the method:
The logP values given in the Tables and Preparation Examples above are determined in accordance with EEC Directive 79/831 Annex V.A8 by HPLC (High Performance Liquid Chromatography) on a reversed-phase column (C 18). Temperature: 43° C. The determination is carried out in the acidic range at pH 2.3 using the mobile phases 0.1% aqueous phosphoric acid and acetonitrile; linear gradient from 10% acetonitrile to 90% acetonitrile. The determination is carried out in the neutral range at pH 7.5 using the mobile phases 0.01-molar aqueous phosphate buffer solution and acetonitrile; linear gradient from 10% acetonitrile to 90% acetonitrile. Calibration is carried out using unbranched alkan-2-ones (having 3 to 16 carbon atoms), with known logP values (determination of the logP values by the retention times using linear interpolation between two successive alkanones).

In a further data set the test system is Uromyces appendiculatus. The experiment in a line: Uromyces Test (bean)/protective. In kind it is in vivo. The conditions noted are these: protective spray, application rate 100 ppm, evaluation 10 days after inoculation. As to the method: Uromyces Test (Bean)/Protective
(§1) To produce a suitable preparation of active compound, 1 part by weight of active compound is mixed with the stated amounts of solvents and emulsifier and the concentrate is diluted with water to the desired concentration. To test for protective activity, young plants are sprayed with the active compound preparation at the stated application rate. After the spray coating has dried on, the plants are inoculated with an aqueous spore suspension of the bean rust pathogen Uromyces appendiculatus and then remain in an incubation cabinet at about 20° C. and 100% relative atmospheric humidity for 1 day. The plants are then placed in a greenhouse at about 21° C. and a relative atmospheric humidity of about 90%. Evaluation is carried out 10 days after the inoculation. 0% means an efficacy which corresponds to that of the control, whereas an efficacy of 100% means that no infection is observed.

In another data set the test system is Botrytis cinerea. The experiment in a line: Botrytis Test (bean)/protective. In kind it is in vivo. The conditions noted are these: protective spray, application rate 250 ppm, evaluation 2 days after inoculation. As to the method: Botrytis Test (Bean)/Protective
To produce a suitable preparation of active compound, 1 part by weight of active compound is mixed with the stated amounts of solvents and emulsifier and the concentrate is diluted with water to the desired concentration. To test for protective activity, young plants are sprayed with the active compound preparation at the stated application rate. After the spray coating has dried on, 2 small pieces of agar colonized by Botrytis cinerea are placed onto each leaf. The inoculated plants are placed in a dark chamber at about 20° C. and 100% relative atmospheric humidity. The size of the infected areas on the leaves is evaluated 2 days after the inoculation. 0% means an efficacy which corresponds to that of the control, whereas an efficacy of 100% means that no infection is observed.

Another data set relates to Sphaerotheca fuliginea. The experiment in a line: Sphaerotheca Test (cucumber)/protective. It is filed as in vivo. The following applies: protective spray, application rate 100 ppm, evaluation 7 days after inoculation. How it is done: Sphaerotheca Test (Cucumber)/Protective
To produce a suitable preparation of active compound, 1 part by weight of active compound is mixed with the stated amounts of solvents and emulsifier, and the concentrate is diluted with water to the desired concentration.
To test for protective activity, young plants are sprayed with the active compound preparation at the stated application rate. After the spray coating has dried on, the plants are inoculated with an aqueous spore suspension of Sphaerotheca fuliginea. The plants are then placed in a greenhouse at about 23° C. and a relative atmospheric humidity of about 70%.
Evaluation is carried out 7 days after the inoculation. 0% means an efficacy which corresponds to that of the control, whereas an efficacy of 100% means that no infection is observed.

For another data set, the system named is Venturia inaequalis. The data set can be described thus: Venturia Test (apple)/protective. It is filed as in vivo. The conditions noted are these: protective spray, application rate 100 ppm, evaluation 10 days after inoculation. As to the method:
Venturia Test (Apple)/Protective
as §1, with “rates.” for “rate.”, “conidia” for “spore”, “apple scab” for “bean rust”, “Venturia inaequalis” for “Uromyces appendiculatus”, “cabin” for “cabinet”

The next data set concerns Alternaria solani. The data set can be described thus: Alternaria Test (tomato)/protective. It is filed as in vivo. The following applies: protective spray, application rate 500 ppm, evaluation 7 days after inoculation. How it is done: Alternaria Test (Tomato)/Protective
To produce a suitable preparation of active compound, 1 part by weight of active compound is mixed with the stated amounts of solvent and emulsifier and the concentrate is diluted with water to the desired concentration. To test for protective activity, young tomato plants are sprayed with the active compound preparation at the stated application rate. 1 day after the treatment, the plants are inoculated with a spore suspension of Alternaria solani and then remain at 100% relative atmospheric humidity and 20° C. for 24 h. The plants then remain at 96% relative atmospheric humidity and a temperature of 20° C. Evaluation is carried out 7 days after the inoculation. 0% means an efficacy which corresponds to that of the control, whereas an efficacy of 100% means that no infection is observed.

The subject of another data set is Pyrenophora teres. The data set can be described thus: Pyrenophora teres Test (barley)/protective. It is filed as in vivo. The conditions noted are these: protective spray, application rate 1000 ppm, evaluation 8 days after inoculation. As to the method:
Pyrenophora teres Test (Barley)/Protective
(§2) To produce a suitable preparation of active compound, 1 part by weight of active compound is mixed with the stated amounts of solvent and emulsifier and the concentrate is diluted with water to the desired concentration. To test for protective activity, young plants are sprayed with the active compound preparation at the stated application rate. After the spray coating has dried on, the plants are sprayed with a conidia suspension of Pyrenophora teres. The plants remain in an incubation cabin at 20° C. and 100% relative atmospheric humidity for 48 hours. The plants are then placed in a greenhouse at a temperature of about 20° C. and a relative atmospheric humidity of about 80%. Evaluation is carried out 8 days after the inoculation. 0% means an efficacy which corresponds to that of the control, whereas an efficacy of 100% means that no infection is observed.

For the next data set, the system named is Puccinia recondita. The data set can be described thus: Puccinia Test (wheat)/protective. It is filed as in vivo. The conditions noted are these: protective spray, application rate 1000 ppm, evaluation 10 days after inoculation. How it is done: Puccinia Test (Wheat)/Protective
as §2, with “of Puccinia recondita.” for “of Pyrenophora teres.”, “about 80% to promote the development of rust pustules.” for “about 80%.”, “out 10” for “out 8”

The mark [2] stands for this setting: pH 2.3, 0.1% aqueous phosphoric acid/acetonitrile gradient, 43° C.

Consider `COCCSC(=Nc1ccccc1C1CC2CCC1C2)c1cn(C)nc1C(F)F` (stereo not drawn) [Compound 3], for which the “logP (pH 2.3)” value in data set [1] (setting [2]) is on record as 4.62.

Regarding `Cn1cc(C(=Nc2ccccc2C2CC3CCC2C3)SCC#N)c(C(F)F)n1` (stereo not drawn) [Compound 6], the “logP (pH 2.3)” value in data set [1] (setting [2]) was 4.15.

With `Cn1cc(C(=Nc2ccccc2C2CC3CCC2C3)SCSC#N)c(C(F)F)n1` (stereo not drawn) [Compound 7], the “logP (pH 2.3)” value in data set [1] (setting [2]) is 4.55.

For `C#CCSC(=Nc1ccccc1C1CC2CCC1C2)c1cn(C)nc1C(F)F` (stereo not drawn) [Compound 8], in data set [1] (setting [2]), the “logP (pH 2.3)” value was determined as 4.65.

Usually chromatographic logP stands for lipophilicity estimated from chromatographic retention. `CS/C(=N\c1ccccc1C1CC2CCC1C2)c1cn(C)nc1C(F)F` (stereo not drawn) [Compound 9, methyl N-(2-bicyclo[2.2.1]hept-2-ylphenyl)-3-(difluoromethyl)-1-methyl-1H-pyrazole-4-carbimidothioate] displayed a chromatographic logP in data set [1] (setting [2]) of 4.75.

Turning to `Cn1cc(C(=Nc2ccccc2C2CC3CCC2C3)SCCO)c(C(F)F)n1` (stereo not drawn) [Compound 10], the Efficacy in % in the data set with Uromyces appendiculatus, in the data set with Botrytis cinerea, in the data set on Sphaerotheca fuliginea, with Venturia inaequalis and in the data set with Alternaria solani was 100% each time. Further, the “logP (pH 2.3)” value in data set [1] (pH 2.3) turned out to be 3.23.

As to `CCOC(=O)CSC(=Nc1ccccc1C1CC2CCC1C2)c1cn(C)nc1C(F)F` (stereo not drawn) [Compound 11], the Efficacy in % in the data set on Uromyces appendiculatus, with Botrytis cinerea, in the data set on Sphaerotheca fuliginea, in the data set with Pyrenophora teres, in the data set on Venturia inaequalis and in the data set with Puccinia recondita was 100% throughout. Besides, the Efficacy in % with Alternaria solani is recorded as 95%. The “logP (pH 2.3)” value in data set [1] (pH 2.3) was determined as 4.66.

On to `Cn1cc(C(=Nc2ccccc2C2CC3CCC2C3)SCc2ccc(Cl)nc2)c(C(F)F)n1` (stereo not drawn) [Compound 12], for which the “logP (pH 2.3)” value in data set [1] (setting [2]) was 4.95.

Turning to `CCCCCCCCCCCCSC(=Nc1ccccc1C1CC2CCC1C2)c1cn(C)nc1C(F)F` (stereo not drawn) [Compound 13], the “logP (pH 2.3)” value in data set [1] (setting [2]) is 7.36.

For the compound `Cn1cc(C(=Nc2ccccc2C2CC3CCC2C3)SC(=O)C(C)(C)C)c(C(F)F)n1` (stereo not drawn) [Compound 18], the “logP (pH 2.3)” value in data set [1] (setting [2]) worked out at 5.81.

Consider `CCC1(C(=O)SC(=Nc2ccccc2C2CC3CCC2C3)c2cn(C)nc2C(F)F)C(C)C1(Cl)Cl` (stereo not drawn) [Compound 19], for which the Efficacy in % was 96% in the data set with Uromyces appendiculatus; 92% with Pyrenophora teres; 99% in the data set on Venturia inaequalis; 93% with Puccinia recondita; 90% in the data set with Alternaria solani. In addition, in data set [1] (pH 2.3), the “logP (pH 2.3)” value worked out at 6.52.

`Cn1cc(C(=Nc2ccccc2C2CC3CCC2C3)SC(=O)C2(C)CCCCC2)c(C(F)F)n1` (stereo not drawn) [Compound 20]: the Efficacy in % came to 99% with Uromyces appendiculatus; 100% in the data set on Sphaerotheca fuliginea; 100% with Pyrenophora teres; 100% with Venturia inaequalis; 100% in the data set with Puccinia recondita; 80% in the data set with Alternaria solani. For the same compound, the “logP (pH 2.3)” value in data set [1] (pH 2.3) is reported as 6.66.

In the case of `Cc1nn(C)c(F)c1C(=S)Nc1ccccc1C(C)CC(C)(C)C` (stereo not drawn) [II-1], the “logP (at pH 7.5)” value in data set [1] (pH 7.5, 0.01-molar aqueous phosphate buffer/acetonitrile gradient, 43° C.) is reported as 3.70 (at pH 7.5).

For the compound `Cn1cc(C(=S)Nc2ccccc2C2CC3CCC2C3)c(C(F)F)n1` (stereo not drawn) [II-7, N-(2-bicyclo[2.2.1]hept-2-ylphenyl)-3-(difluoromethyl)-1-methyl-1H-pyrazole-4-thiocarboxamide], the chromatographic logP in data set [1] (setting [2]) was determined as 3.66.

As to `Cn1cc(C(=NNc2ccccc2)Nc2ccccc2C2CC3CCC2C3)c(C(F)F)n1` (stereo not drawn) [II-8, N-(2-bicyclo[2.2.1]hept-2-ylphenyl)-3-(difluoromethyl)-1-methyl-N′-phenyl-1H-pyrazole-4-carbohydrazonamide], the chromatographic logP in data set [1] (setting [2]) was 3.66.

Regarding `Cn1cc(C(=NO)Nc2ccccc2C2CC3CCC2C3)c(C(F)F)n1` (stereo not drawn) [II-9], the “logP (pH 2.3)” value in data set [1] (setting [2]) was determined as 2.88.

For the origin of these results see patent US8017558B2, “Carboxamides for controlling micro-organisms in plant and material protection” (priority 2005, dated 2011).
